Patent US12303845B2, “Method for crystallization of active pharmaceutical ingredients” (Nanoform Finland Oyj, priority 2023, dated 2025)

Test: Dissolution studies (Pion Rainbow, FaSSIF / SGF-FaSSIF)
Type: physicochemical
Settings: composition of the disclosure vs bulk ezetimibe; powders resuspended in aq. 1% PVPVA; FaSSIF and SGF-FaSSIF
Method: The dissolution properties were measured with a Pion Rainbow R2D instrument (Pion Inc UK Ltd, Forest Row, UK). The suspensions were prepared at concentration of 5 mg/mL in 1% PVPVA suspension vehicle loaded at 40 μg/mL (ezetimibe) or 30 μg/ml (apalutamide). Fasted simulated intestinal fluid (FaSSIF) media pH 6.5 was used for dissolution studies of Ezetimibe. Dissolution studies for Apalutamide was done in biphasic mode starting in Simulated gastric media (SGF) (0.025 M HCl pH 1.6) for 15 min. Thereafter, the content of the SGF was converted to FaSSIF medium pH 6.5 by addition of 10 mL of FaSSIF concentrate media. The temperature was set to 37° C. and stirring rate to 150 rpm. API concentrations were continuously monitored with a fiber optical UV-Vis probes path length. UV-Vis spectra were collected in 30-sec intervals using the Pion Rainbow Dynamic with either 10 mm tips for Ezetimibe or 5 mm tips for Apalutamide. The API concentration was calculated based on a standard curve using 2nd derivative data transformation (stock solution 5 mg/mL in ethanol of respective API) at a range of 293-320 nm wavelength for both Ezetimibe and Apalutamide).

With `O=C1[C@H](CC[C@H](O)c2ccc(F)cc2)[C@@H](c2ccc(O)cc2)N1c1ccc(F)cc1` [Eze, ezetimibe] the “dissolution versus bulk material” value was “dissolves significantly faster”.
